How the values were obtained:
Abutilon theophrasti = test: Weeding effect in post-emergence stage; type: in vivo; conditions: active ingredient 2000 g/ha, 3 weeks after application, fresh weight control rate
Procedure, shortened: (§1)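 Greenhouse-grown weeds at the 2-3 leaf stage, about 2 weeks after sowing, were sprayed with compound at 2000-125 g/ha. The spray solution was made from acetone with Tween 80 and 1.5 L/ha methyl oleate concentrate as synergist. Fresh-weight growth control was scored 3 weeks after treatment.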

[1] = test system: Amaranthus retroflexus L.; test: Weeding effect in post-emergence stage; type: in vivo; conditions: active ingredient 2000 g/ha, 3 weeks after application, fresh weight control rate
Procedure, shortened: as §1

Chenopodium album = test: Weeding effect in post-emergence stage; type: in vivo; conditions: active ingredient 2000 g/ha, 3 weeks after application, fresh weight control rate
Procedure, shortened: as §1

Descurainia sophia = test: Weeding effect in post-emergence stage; type: in vivo; conditions: for Activity level (growth control rate), Descurainia sophia: active ingredient 250 g/ha; for Weeding effect, activity level (growth control rate), Descurainia sophia: active ingredient 2000 g/ha, 3 weeks after application, fresh weight control rate
Procedure, shortened: as §1

Alopecurus aequalis = test: Weeding effect in post-emergence stage; type: in vivo; conditions: active ingredient 250 g/ha
Source text: (§2) The activity level criteria for plant damage (i.e., growth control rate) are as follows:
(§3) The above growth control rates are fresh weight control rates.
(§4) Experiment on weeding effect in post-emergence stage: monocotyledonous and dicotyledonous weed seeds and major crop seeds (wheat, corn, rice, soybean, cotton, oilseed rape, millet, sorghum) were placed in plastic pots filled with soil, then covered with 0.5-2 cm of soil, allowed to grow in a good greenhouse environment. After 2 weeks of sowing, the test plants were treated in the 2-3 leaf stage. The tested compounds of the present invention were respectively dissolved in acetone at the dosage of 2000, 1000, 500, 250, 125 g/ha, then added with Tween 80 and 1.5 liter/ha of emulsifiable concentrate of methyl oleate as synergist, diluted with a certain amount of water to obtain a solution with a certain concentration, and sprayed with a spray tower onto the plants. After the application, the plants were cultured for 3 weeks in the greenhouse, and then the experimental results were listed in Table 1.
(§5) In addition, under the active ingredient of 250 g/ha, many compounds also show good crop selectivity and excellent control effect on key weeds.

Alopecurus myosuroides = test: Weeding effect in post-emergence stage; type: in vivo; conditions: active ingredient 250 g/ha
Source text: as §2, §3, §4, §5

Beckmannia syzigachne = test: Weeding effect in post-emergence stage; type: in vivo; conditions: active ingredient 250 g/ha
Source text: as §2, §3, §4, §5

Sclerochloa dura = test: Weeding effect in post-emergence stage; type: in vivo; conditions: active ingredient 250 g/ha
Source text: as §2, §3, §4, §5

Wheat = test: Crop selectivity in post-emergence stage; type: in vivo; conditions: active ingredient 250 g/ha
Source text: as §2, §3, §4, §5

[2] = test system: Echinochloa crusgalli, Scirpus juncoides, Bidens tripartita L., Sagittaria trifolia, Monochoria vaginalis; test: Weed control effect evaluation in rice field; type: in vivo, rice field weeds; conditions: weed seeds collected from Heilongjiang Province of China
Source text: Transplanted rice safety evaluation and weed control effect evaluation in rice field:
Rice field soil was loaded into a 1/1,000,000 ha pot. The seeds of Echinochloa crusgalli, Scirpus juncoides, Bidens tripartita L., Sagittaria trifolia, and Monochoria vaginalis were sowed and gently covered with soil, then left to stand still in greenhouse in the state of 0.5-1 cm of water storage. The tuber of Sagittaria trifolia was planted in the next day or 2 days later. It was kept at 3-4 cm of water storage thereafter. The weeds were treated by dripping the WP or SC water diluents prepared according to the common preparation method of the compounds of the present invention with pipette homogeneously to achieve specified effective amount when Echinochloa crusgalli, Scirpus juncoides, Bidens tripartita L., and Monochoria vaginalis reached 0.5 leaf stage and Sagittaria trifolia reached the time point of primary leaf stage.
The fertility condition of Echinochloa crusgalli, Scirpus juncoides, Bidens tripartita L., Sagittaria trifolia and Monochoria vaginalis 14 days after the treatment of the compound of the invention and the fertility condition of rice 21 days after the treatment of the compound of the invention respectively with the naked eye. Evaluate the weed control effect with the above 0-5 activity standard level, many compounds show excellent activity and selectivity. […]

Compound | Weeding effect, activity level (growth control rate), Abutilon theophrasti (Abutilon theophrasti) | Weeding effect, activity level (growth control rate), Amaranthus retroflexus L. [1] | Weeding effect, activity level (growth control rate), Chenopodium album (Chenopodium album) | Activity level (growth control rate), Descurainia sophia (Descurainia sophia) | Weeding effect, activity level (growth control rate), Descurainia sophia (Descurainia sophia) | Activity level (growth control rate), Alopecurus aequalis (Alopecurus aequalis) | Activity level (growth control rate), Alopecurus myosuroides (Alopecurus myosuroides) | Activity level (growth control rate), Beckmannia syzigachne (Beckmannia syzigachne) | Activity level (growth control rate), Sclerochloa dura (Sclerochloa dura) | Plant damage level (growth control rate), Wheat (Wheat) | Response of the rice field weeds to common doses of the herbicide [2]
Cn1nnnc1NC(=O)c1ccnc(-c2ccccc2F)c1Cl [Compound 1-15] | 5 (Level 5: growth control rate is above 85%) | 5 (Level 5: growth control rate is above 85%) | 5 (Level 5: growth control rate is above 85%) | 5 (Level 5: growth control rate is above 85%) | 5 (Level 5: growth control rate is above 85%) | 5 (Level 5: growth control rate is above 85%) | 5 (Level 5: growth control rate is above 85%) | 5 (Level 5: growth control rate is above 85%) | 5 (Level 5: growth control rate is above 85%) | 0 (Level 0: growth control rate is less than 5%) | –
Cn1nnnc1NC(=O)c1ccnc(-c2ccc(F)cc2)c1Cl [Compound 1-17] | 5 (Level 5: growth control rate is above 85%) | 5 (Level 5: growth control rate is above 85%) | 5 (Level 5: growth control rate is above 85%) | 5 (Level 5: growth control rate is above 85%) | 5 (Level 5: growth control rate is above 85%) | 5 (Level 5: growth control rate is above 85%) | 5 (Level 5: growth control rate is above 85%) | 5 (Level 5: growth control rate is above 85%) | 5 (Level 5: growth control rate is above 85%) | 0 (Level 0: growth control rate is less than 5%) | –
Cc1nonc1NC(=O)c1ccnc(C)c1Cl [Control compound A, reference compound] | – | – | – | 0 (Level 0: growth control rate is less than 5%) | – | 0 (Level 0: growth control rate is less than 5%) | 0 (Level 0: growth control rate is less than 5%) | 0 (Level 0: growth control rate is less than 5%) | 0 (Level 0: growth control rate is less than 5%) | 0 (Level 0: growth control rate is less than 5%) | –
COc1cnc(OC)n2nc(NS(=O)(=O)c3c(OCC(F)F)cccc3C(F)(F)F)nc12 [Penoxsulam, penoxsulam] | – | – | – | – | – | – | – | – | – | – | resistant
CCOC(=O)c1cnn(C)c1S(=O)(=O)NC(=O)Nc1nc(OC)cc(OC)n1 [Pyrazosulfuron-ethyl, pyrazosulfuron-ethyl] | – | – | – | – | – | – | – | – | – | – | resistant

— patent publication US12497365B2, “4-pyridinyl formamide compound or derivative thereof, preparation method therefor, herbicidal composition and use thereof” (Qingdao Kingagroot Chemical Compound Co., Ltd., priority 2019, dated 2025)
